What was measured:
NFkB-SEAP = experiment: THP1-Dual cells transfected with DNA, nfkb expression (Quantiblue); type: cell-based; conditions: Homo sapiens; for inhibition at 10 µM: THP-1, 10 μM; for inhibition at 30 µM: THP-1, 30 μM
Description: Evaluation of active cGAS inhibitors in THP1 cells (Table 3). Cellular activity of all compounds (in Table 3) was determined using THP1-Dual™ cells as described (Lama et. al., 2019). THP1-Dual™ cells (Invivogen) (50000 cells in 100 μl media) were seeded into each well of a 96-well plate and treated with compounds at various dilution for 4 hours. Subsequently, cells were transfected with DNA (2 ug/ml) and lipofectamine and incubate the cells were incubated overnight. Ifnb expression was measured in cell supernatant using Quantiluc, nfkb expression was determined using Quantiblue, and cell viability using Promega® CellTiter-Glo®.

THP1 cells = experiment: THP1-Dual cells, cell viability (CellTiter-Glo); type: cell-based
How it was run: (§1)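 Readouts after overnight incubation: Quantiluc luminescence for Ifnb, Quantiblue for nfkb (both in supernatant) and CellTiter-Glo for viability. Before the DNA stimulus (2 ug/ml, lipofectamine transfection), THP1-Dual cells received compound at several dilutions for 4 h.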

[1] = Metabolic stability in human liver microsomes; conditions: for Remaining (NCF = 60 min) / Remaining (T = 60 min): human liver microsomes; for Remaining (NCF = 60 min): no co-factor (no NADPH); for Remaining (T = 60 min): 60 min with NADPH
h-cGAS = h-cGAS (Homo sapiens, UniProt Q8N884); experiment: Cell-free human cGAS enzyme inhibition assay (ATP depletion, Kinase-Glo Max); type: biochemical; conditions: 3 h; for inhibition at 1 µM: read-out: h-cGAS, conc. 1 μM; for inhibition at 10 µM: read-out: h-cGAS, conc. 10 μM
Chain of h-cGAS (Q8N884 whole entry): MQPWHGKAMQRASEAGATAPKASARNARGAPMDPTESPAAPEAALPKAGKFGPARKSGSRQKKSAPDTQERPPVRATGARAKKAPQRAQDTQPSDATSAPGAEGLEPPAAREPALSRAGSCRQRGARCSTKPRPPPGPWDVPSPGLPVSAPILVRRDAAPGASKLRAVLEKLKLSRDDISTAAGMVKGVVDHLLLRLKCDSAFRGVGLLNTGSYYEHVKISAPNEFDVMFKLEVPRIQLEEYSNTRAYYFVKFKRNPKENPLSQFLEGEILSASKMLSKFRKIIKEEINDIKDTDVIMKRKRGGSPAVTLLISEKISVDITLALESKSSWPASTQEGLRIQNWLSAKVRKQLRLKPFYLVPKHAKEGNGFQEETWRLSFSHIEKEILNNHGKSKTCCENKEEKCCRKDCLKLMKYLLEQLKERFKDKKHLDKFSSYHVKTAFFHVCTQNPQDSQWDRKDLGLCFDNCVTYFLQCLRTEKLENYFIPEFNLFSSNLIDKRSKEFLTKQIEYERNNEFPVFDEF

[2] = Metabolic stability in mouse liver microsomes; conditions: for Remaining (NCF = 60 min) / Remaining (T = 60 min): mouse liver microsomes; for Remaining (NCF = 60 min): no co-factor (no NADPH); for Remaining (T = 60 min): 60 min with NADPH
m-cGAS = m-cGAS (Mus musculus, UniProt Q8C6L5); experiment: Cell-free mouse cGAS enzyme inhibition assay (ATP depletion, Kinase-Glo Max); type: biochemical; conditions: 1 h; for inhibition at 10 µM: read-out: m-cGAS, conc. 10 μM; for inhibition at 1 µM: read-out: m-cGAS, conc. 1 μM
Chain of m-cGAS (Q8C6L5 whole entry): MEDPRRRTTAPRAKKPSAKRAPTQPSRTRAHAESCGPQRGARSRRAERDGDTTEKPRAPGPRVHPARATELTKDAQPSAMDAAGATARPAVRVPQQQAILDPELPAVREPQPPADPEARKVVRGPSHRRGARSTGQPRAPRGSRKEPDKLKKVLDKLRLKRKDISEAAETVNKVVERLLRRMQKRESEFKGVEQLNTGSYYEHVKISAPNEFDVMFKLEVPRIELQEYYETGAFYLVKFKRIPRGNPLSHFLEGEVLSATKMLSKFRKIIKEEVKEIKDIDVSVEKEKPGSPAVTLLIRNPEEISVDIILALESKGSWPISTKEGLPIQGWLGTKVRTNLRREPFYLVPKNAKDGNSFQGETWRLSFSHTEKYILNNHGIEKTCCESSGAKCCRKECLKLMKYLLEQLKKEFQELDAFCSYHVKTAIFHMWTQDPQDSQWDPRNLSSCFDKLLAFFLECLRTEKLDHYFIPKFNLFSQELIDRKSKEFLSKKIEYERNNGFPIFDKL

IFNB = experiment: THP1-Dual cells transfected with DNA, Ifnb expression (Quantiluc); type: cell-based; conditions: Homo sapiens; for inhibition at 10 µM: THP-1, 10 μM; for inhibition at 30 µM: THP-1, 30 μM
How it was run: as §1

Row | SMILES | inhibition at 10 µM (NFkB-SEAP) | inhibition at 30 µM (NFkB-SEAP) | Cell viability 10 μM (THP1 cells) | Cell viability 30 μM (THP1 cells) | inhibition at 1 µM (h-cGAS) | inhibition at 10 µM (h-cGAS) | inhibition at 10 µM (m-cGAS) | inhibition at 10 µM (IFNB) | inhibition at 30 µM (IFNB) | inhibition at 1 µM (m-cGAS) | other results
1 | Cn1cc(-c2cc(Cl)c(Cl)c3c2c2c(n3C)CCN(C(=O)CN)C2)cn1 [Compound 11] | < 24% | 50 to 74% | ++ (+, ++, and +++ mean the compound respectively shows 25-49%; 50-74%; or 75-100% viability to cells) | − (Cell viability <24%, in THP1 cells is expressed as “−”) | 75 to 100% | 75 to 100% | 25 to 49% | 50 to 74% | 75 to 100% | – | Remaining (NCF = 60 min) [1]: 116.1%; Remaining (T = 60 min) [1]: 88.2%; CLint scaled ([1]; human, liver microsomes): < 8.6 mL/min/kg; half-life ([1]; human, liver microsomes): > 145 min; microsomal CLint ([1]; human, liver microsomes): < 9.6 µL/min/mg; Remaining (NCF = 60 min) [2]: 97.7%; Remaining (T = 60 min) [2]: 80.1%; CLint scaled ([2]; mouse, liver microsomes): < 38 mL/min/kg; half-life ([2]; mouse, liver microsomes): > 145 min; microsomal CLint ([2]; mouse, liver microsomes): < 9.6 µL/min/mg
2 | O=C(O)Cc1ccccc1Nc1c(Cl)cccc1Cl [Diclofenac, reference compound] | – | – | – | – | – | – | – | – | – | – | Remaining (NCF = 60 min) [1]: 114.8%; Remaining (T = 60 min) [1]: 0.0%; CLint(mic) ([1]; human, liver microsomes): 323.6 µL/min/mg; T½ ([1]; human, liver microsomes): 4.3 min; Remaining (NCF = 60 min) [2]: 100.4%; Remaining (T = 60 min) [2]: 33.1%; half-life ([2]; mouse, liver microsomes): 38 min; microsomal CLint ([2]; mouse, liver microsomes): 36.5 µL/min/mg
3 | Cn1ccc(-c2cc(Cl)c(Cl)c3oc4c(c23)CN(C(=O)CO)CC4)n1 [Compound 24] | < 24% | – | +++ (+, ++, and +++ mean the compound respectively shows 25-49%; 50-74%; or 75-100% viability to cells) | +++ (+, ++, and +++ mean the compound respectively shows 25-49%; 50-74%; or 75-100% viability to cells) | 50 to 74% | 75 to 100% | 50 to 74% | 50 to 74% | 75 to 100% | 0 to 24% | Remaining (NCF = 60 min) [2]: 116.2%; Remaining (T = 60 min) [2]: 6.3%; CLint scaled ([2]; mouse, liver microsomes): < 23.1 mL/min/kg; half-life ([2]; mouse, liver microsomes): > 185 min; microsomal CLint ([2]; mouse, liver microsomes): < 7.5 µL/min/mg
4 | Cn1ncc(-c2cc(Cl)c(Cl)c3sc4c(c23)CCN(C(=O)CN)C4)n1 [Compound 92] | 75 to 100% | 75 to 100% | ++ (+, ++, and +++ mean the compound respectively shows 25-49%; 50-74%; or 75-100% viability to cells) | − (Cell viability <24%, in THP1 cells is expressed as “−”) | 25 to 49% | 50 to 74% | 75 to 100% | 75 to 100% | 75 to 100% | 25 to 49% | –
5 | CC(C)(N)C(=O)N1CCc2[nH]c3c(Cl)c(Cl)cc(-c4cc[nH]n4)c3c2C1 [Compound 20] | 75 to 100% | 75 to 100% | +++ (+, ++, and +++ mean the compound respectively shows 25-49%; 50-74%; or 75-100% viability to cells) | +++ (+, ++, and +++ mean the compound respectively shows 25-49%; 50-74%; or 75-100% viability to cells) | 25 to 49% | 75 to 100% | 0 to 24% | 50 to 74% | 75 to 100% | – | –
6 | NCC(=O)N1CCc2oc3c(Cl)c(Cl)cc(-c4cncnc4)c3c2C1 [Compound 32] | < 24% | < 24% | +++ (+, ++, and +++ mean the compound respectively shows 25-49%; 50-74%; or 75-100% viability to cells) | +++ (+, ++, and +++ mean the compound respectively shows 25-49%; 50-74%; or 75-100% viability to cells) | 25 to 49% | 50 to 74% | 75 to 100% | < 24% | < 24% | 50 to 74% | –
7 | NCC(=O)N1CCc2c(sc3c(Cl)c(Cl)cc(-c4nccs4)c23)C1 [Compound 84] | < 24% | 50 to 74% | +++ (+, ++, and +++ mean the compound respectively shows 25-49%; 50-74%; or 75-100% viability to cells) | − (Cell viability <24%, in THP1 cells is expressed as “−”) | 25 to 49% | 75 to 100% | 50 to 74% | 25 to 49% | 75 to 100% | 0 to 24% | –
8 | NCC(=O)N1CCc2c(sc3c(Cl)c(Cl)cc(-c4cccs4)c23)C1 [Compound 81] | 75 to 100% | 75 to 100% | +++ (+, ++, and +++ mean the compound respectively shows 25-49%; 50-74%; or 75-100% viability to cells) | − (Cell viability <24%, in THP1 cells is expressed as “−”) | 0 to 24% | 50 to 74% | 50 to 74% | 50 to 74% | 75 to 100% | 0 to 24% | –
9 | O=C(CO)N1CCc2oc3c(Cl)c(Cl)ccc3c2C1 [Compound 21] | – | < 24% | – | +++ (+, ++, and +++ mean the compound respectively shows 25-49%; 50-74%; or 75-100% viability to cells) | – | 25 to 49% | 75 to 100% | – | < 24% | – | –
10 | Cn1c2c(c3c(O)cc(Cl)c(F)c31)CN(C(=O)CO)CC2 [Compound 1, 1-(7-chloro-6-fluoro-9-hydroxy-5-methyl-3,4-dihydro-1H-pyrido[4,3-b]indol-2-yl)-2-hydroxy-ethanone] | < 24% | < 24% | +++ (+, ++, and +++ mean the compound respectively shows 25-49%; 50-74%; or 75-100% viability to cells) | +++ (+, ++, and +++ mean the compound respectively shows 25-49%; 50-74%; or 75-100% viability to cells) | 0 to 24% | 75 to 100% | 75 to 100% | < 24% | < 24% | – | –
11 | CC(O)C(=O)N1CCc2c(c3c(-c4ccn(C)n4)cc(Cl)c(Cl)c3n2C)C1 (centres unmarked) [Compound 4] | < 24% | 25 to 49% | +++ (+, ++, and +++ mean the compound respectively shows 25-49%; 50-74%; or 75-100% viability to cells) | +++ (+, ++, and +++ mean the compound respectively shows 25-49%; 50-74%; or 75-100% viability to cells) | 25 to 49% | 75 to 100% | 0 to 24% | < 24% | 50 to 74% | – | –
12 | CN1c2c(Cl)c(Cl)cc(-c3cnn(C)c3)c2C2CN(C(=O)CN)CCC21 (centres unmarked) [Compound 12] | < 24% | – | +++ (+, ++, and +++ mean the compound respectively shows 25-49%; 50-74%; or 75-100% viability to cells) | – | 0 to 24% | 75 to 100% | 0 to 24% | < 24% | – | – | –
13 | NCC(=O)N1CCc2c(sc3c(Cl)c(Cl)cc(-c4ccncc4)c23)C1 [Compound 79] | 50 to 74% | 75 to 100% | + (+, ++, and +++ mean the compound respectively shows 25-49%; 50-74%; or 75-100% viability to cells) | − (Cell viability <24%, in THP1 cells is expressed as “−”) | – | 25 to 49% | 75 to 100% | 75 to 100% | 75 to 100% | 25 to 49% | –
14 | Cn1c2c(c3c(-c4cncnc4)cc(Cl)c(Cl)c31)CN(C(=O)CN)CC2 [Compound 8] | 25 to 49% | 50 to 74% | +++ (+, ++, and +++ mean the compound respectively shows 25-49%; 50-74%; or 75-100% viability to cells) | − (Cell viability <24%, in THP1 cells is expressed as “−”) | 50 to 74% | 75 to 100% | 0 to 24% | 50 to 74% | 75 to 100% | – | –
15 | NCC(=O)N1CCc2c(sc3c(Cl)c(Cl)cc(-c4cncs4)c23)C1 [Compound 87] | 50 to 74% | 75 to 100% | − (Cell viability <24%, in THP1 cells is expressed as “−”) | − (Cell viability <24%, in THP1 cells is expressed as “−”) | 0 to 24% | 50 to 74% | 75 to 100% | 75 to 100% | 75 to 100% | 25 to 49% | –
16 | C[C@]12CC[C@H]3[C@@H](CCC4=CC(=O)CC[C@@]43C)[C@@H]1CC[C@@H]2O [Testosterone, reference compound] | – | – | – | – | – | – | – | – | – | – | Remaining (NCF = 60 min) [1]: 109.9%; Remaining (T = 60 min) [1]: 4.0%; CLint scaled ([1]; human, liver microsomes): 98.2 mL/min/kg; Remaining (NCF = 60 min) [2]: 88.7%; Remaining (T = 60 min) [2]: 0.0%; CLint scaled ([2]; mouse, liver microsomes): 1490 mL/min/kg; CLint(mic) ([2]; mouse, liver microsomes): 375.9 µL/min/mg; T½ ([2]; mouse, liver microsomes): 3.7 min
